Data taken from patent US8921409B2, “Combination of 4-{3-[cis-hexahydrocyclopenta[c]pyrrol-2(1H)-yl]propoxy}benzamide and a NMDA receptor antagonist and pharmaceutical compositions containing the same” (Les Laboratoires Servier, priority 2011, dated 2014).
Where a name gives a salt, the structure may show the parent alone.

System: middle-aged (14-15 months old) C57B16 mouse
Experiment: Contextual serial discrimination test (model of episodic memory)
Format: in vivo
From the text: The effects of 4-{3-[cis-hexahydrocyclopenta[c]pyrrol-2(1H)-yl]propoxy}benzamide and memantine (both in the form of a hydrochloride), administered on their own or in combination, were studied using a contextual discrimination test in the middle-aged (14-15 months old) C57B16 mouse (n=12 per group) (Célérier et al., Learn Mem., 2004, 11(2), 196-204; Tronche et al., Behav. Brain Res., 2010, 215(2): 255-60). In this model, the middle-aged mice have a specific dysfunction of contextual episodic memory compared to young mice, without a deficiency in spatial memory. This model is relevant for evaluating the effects of products in Alzheimer's disease because patients suffering from that form of dementia also have disturbances of contextual episodic memory, this being the case from a very early stage (Gold and Budson, Expert Rev Neurother., 2008, 8(12): 1879-1891).
The mice, placed in a box with raised edges, learn two types of consecutive spatial discrimination (D1: white floor, then D2: black floor) on a floor with four holes, in which just one of the holes is baited, the arrangement being opposite in D1 and in D2. The colour of the floor (black or white) constitutes the internal context specific to each discrimination. 24 hours after the learning step, the mice are returned to the white contextual floor, and the following are measured: • the percentage of correct responses (i.e. % of lowering the head into the hole that was baited during the learning exercise on the white floor), • the percentage of interfering responses (i.e. % of lowering the head into the hole that was baited during the learning exercise on the black floor, the last context presented to the mice), • and the percentage of errors (i.e. % of lowering the head into the two holes that were not baited during learning, whether on the white floor or on the black floor (see FIG. 1).
The power of contextual memory is defined as being the difference between the percentage of correct responses and the percentage of interfering responses. […]

Row | SMILES | power of contextual memory (% correct responses minus % interfering responses) (memantine hydrochloride 1 mg/kg of base per os, chronic treatment for 9 days, carrier −34%) [%] | power of contextual memory (% correct responses minus % interfering responses) (compound S hydrochloride 0.1 mg/kg of base per os, chronic treatment for 9 days, carrier −34%) [%] | power of contextual memory (% correct responses minus % interfering responses) (compound S on its own, 1 mg/kg of base per os)
1 | CC12CC3CC(C)(C1)CC(N)(C3)C2 [memantine hydrochloride, memantine, reference compound] | −2 |  | 
2 | NC(=O)c1ccc(OCCCN2C[C@H]3CCC[C@H]3C2)cc1 [compound S, 4-{3-[cis-hexahydrocyclopenta[c]pyrrol-2(1H)-yl]propoxy}benzamide] |  | −15 | +14%
